Test results reported in ChEMBL document CHEMBL3507680, “University of Dundee, Gates Library screen for HepG2 cell viability”.

Experiment: Human HepG2 cell viability assay in 384 well format
Assay type: toxicity, cell-based
Parameters: dose 125 nL, time 70.5 hour; concentration not given beside the values
Conditions: HepG2 cells, read-out: Inhibition

SMILES | cytotoxicity at 70.5 h [%]
CN1CCN(C(=O)[C@H]2C[C@H]3[C@H](CCN3Cc3cccs3)O2)CC1 | -2.03
COCCNc1nnc(-c2ccccn2)s1 | -4.27
COc1cncc(N2CCN(Cc3cccn3C)CC2)n1 | 3.9
O=c1[nH]c(N2CCCCC2)nc2nccc(-c3ccc4c(c3)OCO4)c12 | -12.9
O=C(CCN1C[C@H]2CC[C@@H]1CN(c1ncccn1)C2)NCc1ccco1 | 27.5
O=C(c1ccc(-n2cccc2)c(F)c1)N1CCCN2CCCC2C1 (centres undefined) | 8.53
COCCn1cnnc1C1CCCN(c2cnccn2)C1 (centres undefined) | -5.97
CC(C)c1sc(Cl)nc1C(=O)N1CCN(c2ccccc2)CC1 | 28.2
Cc1cc(C)n(CC2CCCN2C(=O)c2ccc3nnc(C)n3c2)n1 (centres undefined) | -0.407
COCCN1CCOCC12CCN(C(=O)c1cccnc1)CC2 | -8.13
CC(C)C(=O)N1CCC(n2nc(-c3ccco3)ccc2=O)CC1 | 15.9
Cc1ccc(NC(=O)N(C)Cc2cnn(C)c2)cc1OCC(F)F | 26.4
Cc1cc(O)cc(C2CCCN2C(=O)c2ccn(C)n2)n1 (centres undefined) | 10.2
c1ccc(C2(NCC3CNc4ccnn4C3)CCC2)cc1 (centres undefined) | -2.65
CSCC[C@H](NC(C)=O)c1nc(Cc2ccccc2)n[nH]1 | 6.58
COc1ccc(C2CCCN2C(=O)NCCn2ccnc2)cc1OC (centres undefined) | 0.318
O=C(O)C1CCN(c2nc3c(-c4ccccc4F)csc3c(=O)[nH]2)CC1 | -0.14
Cc1ccc(N2CCC3(CCCN3Cc3ccn(C)n3)CC2)nn1 | -2.31
Cc1cnn(CC2CCCN2Cc2nnc(-c3ccccc3)o2)c1 (centres undefined) | -4.64
NC(=O)N1CCc2cc(C(=O)O)c(-c3ccsc3)nc2CC1 | -6.4
CCS(=O)(=O)Nc1ccn(Cc2cccc(Cl)c2)n1 | -4.96
Cn1ncc2c1C(COCC1CC1)CN(S(=O)(=O)C1CC1)C2 (centres undefined) | -4.08
Cn1cc(CN2CCC[C@]3(C(=O)O)CN(c4cnccn4)CC[C@@H]23)cn1 | -2.41

SMILES | cytotoxicity at 70.5 h [%]
CNc1ccc(C)cc1C(=O)N1CCCC2(CCNC2)C1 (centres undefined) | -8.09
O=C(NCc1nnc2ccccn12)N1CCOC(c2ccsc2)C1 (centres undefined) | -14.6
CCN(CC)C(=O)c1ccc(-c2ccsc2)nc1C | -6.78
CCOc1c(Cl)cccc1NCc1cc(C)on1 | 6.44
O=C(Cn1cnc(-c2ccccc2)cc1=O)Nc1ccncc1 | -9.96
CCc1nccn1CCC(=O)N1CCCC1c1ccc(F)cc1 (centres undefined) | -1.42
Cc1ccc(-c2cc(N)c(=O)n(C(C)C(=O)NC(C)C)n2)o1 (centres undefined) | -11.9
CCC(C)NC(=O)CS(=O)(=O)Cc1cc(Cl)ccc1OC (centres undefined) | -12
O=c1c(CN2CCSCC2)coc(O)c1CN1CCCC1 | 29.9
CCNC(=O)N1CCC(NC(=O)NCCc2cc(F)cc(F)c2)C1 (centres undefined) | 1.55
O=C1NCCCCC1NC(=O)C1(c2ccccc2)CCOCC1 (centres undefined) | -1.6
Cc1cnc(N2C[C@H]3CN(Cc4csc(C)n4)C(=O)[C@H]3C2)nc1 | -9.66
Cc1cnn(CC2CCCCN2C(=O)c2ccc(C#N)c(C)n2)c1 (centres undefined) | -0.947
O=c1ccc2c(n1CC1CC1)CCC(NS(=O)(=O)C1CC1)C2 (centres undefined) | 21.2
NC(=O)c1nc(-c2cccc(Cl)c2)oc1N | -14.1
COC(=O)c1ccc2c(-c3ccnc(NCCO)n3)c[nH]c2c1 | -1.71
Cc1nc(O)cc(CCNC(=O)c2ccc(CN3CCCCC3)cc2)n1 | 0.488
CC1CN(C(=O)CN(Cc2ccco2)C2CC2)CCO1 (centres undefined) | -10.6
CC(C)N1CCCC(CN(C)c2ccc(Cn3ccnc3)cn2)C1 (centres undefined) | -12.6
O=C(NCC(=O)N1CCCC1)c1nn(-c2ccccc2F)cc1O | 3.63
CN(C)CC1CSCCCN1C(=O)c1ccc(-c2ccccc2)cc1 (centres undefined) | -0.605
CC(C)Oc1ncc(C(=O)N2CCC(N(C)C)CC2)cc1Cl | -9.31
O=C(C1CN(Cc2ccoc2)CC12CCOCC2)N1CCCC1 (centres undefined) | 7.01

SMILES | cytotoxicity at 70.5 h [%]
CC(NC(=O)N(C)C1CC1)c1ccc(Oc2cccnc2)c(F)c1 (centres undefined) | -8.76
O=C(c1cc[nH]n1)N1CCc2ncnc(N3CCSCC3)c2CC1 | 10.4
COCCC1(C(=O)O)CCCN(Cc2ccccc2OCCO)C1 (centres undefined) | -8.44
O=C(C1CCOCC1)N1CC[C@@H](O)[C@@H]1Cc1ccncc1 | -0.548
O=C1COC2(CCN(Cc3ccoc3)CC2)CN1 | -30.5
O=C(c1sccc1C1CC1)N1CCN(CC(F)(F)F)CC1 | -1.63
O=c1c(-c2ccnc(N3CCC[C@H]3CO)n2)cnc2sccn12 | -1.75
CN(Cc1cnn(C)c1)C(=O)c1ccc(=O)n(Cc2ccccc2)n1 | 27.5
CN(C)S(=O)(=O)N1CC[C@]2(C[C@@H](Oc3ncccc3F)CO2)C1 | 13.4
CS(=O)(=O)N1C[C@@H]2CC[C@H](C1)N(Cc1cscn1)C2=O | -11.4
Cn1ccc(C(=O)Nc2cc(F)ccc2OCC2CCCO2)cc1=O (centres undefined) | -8.3
COCCn1ccnc1CN(Cc1ccccn1)CC(C)C | -6.56
Cc1cc(C(=O)N2CCCC(Cn3cc(C4CC4)nn3)C2)nc(C)n1 (centres undefined) | -13.2
CN(Cc1nnc2n1CCC2)C(=O)c1ccc2c(c1)OCCO2 | 44.2
COCC(=O)N1CCC(c2nc3ccc(-c4ccccc4)cn3n2)CC1 | -7.3
O=C(c1csc(-c2cccs2)n1)N1CCCC1Cn1cccn1 (centres undefined) | -18.2
CN(C)C(=O)CCC[S+]([O-])Cc1cc(Cl)ccc1Cl (centres undefined) | -3.61
CC(C)C(C)NC(=O)c1ncn2c1CN(C)S(=O)(=O)c1ccccc1-2 (centres undefined) | -2.58
Cc1ccc(CC(=O)N2CCCC(c3cc(C(N)=O)[nH]n3)C2)cn1 (centres undefined) | -2.37
CCN1CCC(NC(=O)CN2CCc3c(ncn3C3CC3)C2)CC1 | -9.11
O=C(NCc1ccccc1-n1cccn1)N1CCN2CCCCC2C1 (centres undefined) | 1.19
N#Cc1cn(C2CC2)c(=O)n(CC(O)c2ccccc2F)c1=O (centres undefined) | -17
Cn1cc(NC(=O)c2cccc(Cl)c2)c(=O)n(C)c1=O | 24

SMILES | cytotoxicity at 70.5 h [%]
O=C(c1ccon1)N1CCCCC1c1nc2cc(F)ccc2[nH]1 (centres undefined) | -5.01
O=S(=O)(C1CC1)N1CCc2ncnc(-c3ccsc3)c2CC1 | -0.114
O=C1CCC(c2ccccc2)(c2ccccc2)CN1CCO | -3.47
CC(Cn1cncn1)NC(=O)NCC(C)(C)Cc1ccccc1 (centres undefined) | -4.62
CC(C)N(C)CC(=O)NCC(Cc1ccc(F)cc1)C(N)=O (centres undefined) | 1.22
Cc1cc(C2CCCN(Cc3nc(Cc4ccccc4)no3)C2)n[nH]1 (centres undefined) | -10.9
O=C(CCc1nc(Cl)n[nH]1)N1C[C@H](CO)C[C@H](CN2CCCC2)C1 | -7.42
COC(=O)c1ccc2ccn(CC3CCCO3)c(=O)c2c1 (centres undefined) | -0.903
COCCCC1CCCCN1Cc1cnn(C)c1C1CC1 (centres undefined) | -2.6
Cc1ccc(C)n1-c1ccc(C(=O)NCCNc2ncccn2)cc1 | -7.02
O=C(NCC1CC1)C1CN(Cc2cccs2)Cc2ccnn2C1 (centres undefined) | -13.4
Cc1nc(C2(O)CCCNCC2)sc1CCOc1ccccc1Cl (centres undefined) | 1.01
Cc1csc(N2CCCN(C(=O)C3(C#N)CCCC3)CC2)n1 | -8.33
CCn1cc(CN2CCCN(C(=O)Cc3ccc(C)nc3)CC2)cn1 | -9.56
COc1cccc(CN2CCCC(Nc3cccc(F)c3)C2)c1O (centres undefined) | -4.92
Cc1nccn1-c1ccc(N2CCC(NC(C)CC(C)C)CC2)cc1 (centres undefined) | 10.6
CNC(=O)C1CCC(NC(=O)c2cc(C3CC3)n(C(C)(C)C)n2)CC1 (centres undefined) | -6.36
CCOC(=O)N1CCN(C(=O)CCn2ccc3c(OC)cccc32)CC1 | -9.78
CC(C)(C)n1ncc2c1NC(=O)CC2c1ccc(C(=O)O)cc1 (centres undefined) | -13.3
CC(C)OCCC(=O)NCC(O)c1c(F)cccc1F (centres undefined) | -6.84
CC(C)CCC(=O)NC(C#N)CC(C)C (centres undefined) | 3.54
COc1ccc(F)cc1-c1ccccc1CC1CNCCNC1=O (centres undefined) | 2.28
CC(=O)NCC1CCN(C(=O)c2c[nH]c3cc(Cl)ccc23)CC1 | -10.5

SMILES | cytotoxicity at 70.5 h [%]
COC(C(=O)N1CCCN(Cc2cscn2)CC1)c1ccccc1 (centres undefined) | 12.8
CC(C)N(C)[C@@H]1CCN(C(=O)c2ccc[nH]2)[C@H]1Cc1cnn(C)c1 | -8.9
Nc1nnnn1NCc1cccc2ccccc12 | -11.8
Cc1cc(NCCC(=O)NC2CCS(=O)(=O)C2)nc(-c2ccncc2)n1 (centres undefined) | -8.91
COc1ccc(OC)c(CNCc2c(C)nc3sc(C)cn23)c1 | 16.5
CCn1cnnc1CNC(=O)c1cc(Cl)ccc1F | -11.5
CCc1nccn1C1CCCN(C(=O)c2ccc(C(N)=O)cn2)C1 (centres undefined) | -9.53
COc1ccc(N2CCCC3(C2)CN(c2nncs2)CCO3)cc1 (centres undefined) | 1.09
COCCN1C(=O)C2(CCC(C(=O)Nc3ccc(F)cc3)CC2)N=C1C (centres undefined) | -7.58
CNC(=O)[C@@H]1CC[C@@H]2[C@@H](CCN2Cc2cn(C)c3ccccc23)O1 | -3.34
O=C(NCCc1csc(N2CCCC2)n1)N(C1CCCC1)C1CC1 | -2.69
CC(C)c1nccc(C2(c3ccccc3Cl)CCNCC2)n1 | 10.5
Cc1cc2ccccc2n1CCC(=O)N1CCCC1Cn1cccn1 (centres undefined) | -9.07
Cc1noc(C)c1CN(C)CC1CC(C2CCCCC2)=NO1 (centres undefined) | -2.46
CC(C)(O)CN1CCN(C(=O)COC2CCCCC2)CC1 | 1.44
Oc1cccc(C2CN(c3nnc(C4CC4)s3)CCO2)c1 (centres undefined) | -4.99
COC(=O)CCNC(=O)c1c[nH]cc1-c1cccc(OC)c1 | 3.36
CC(=O)NCc1noc2c1CN(Cc1ccsc1)CC2 | -7.56
Cc1noc(C)c1CN1CCC2(CC1)NC(=O)CC2c1ccccc1 (centres undefined) | 2.78
CN(C)CC(=O)N1CCOCC(Cc2ccccn2)C1 (centres undefined) | -13.2
CCC1=N[C@@]2(CC[C@@H]3CN(CC(C)C)C[C@@H]32)C(=O)N1 | -2.78
Cc1noc(C)c1-c1cncc(C2CCCN2Cc2cc[nH]n2)n1 (centres undefined) | -3.25
